The target in experiment [1] is T1, oligomerization-deficient mutant of a LANA C-terminal protein fragment (aa 1008–1146) (Human herpesvirus 8 (Kaposi's sarcoma-associated herpesvirus), UniProt Q76SB0).
T1 sequence (Q76SB0 1008-1146): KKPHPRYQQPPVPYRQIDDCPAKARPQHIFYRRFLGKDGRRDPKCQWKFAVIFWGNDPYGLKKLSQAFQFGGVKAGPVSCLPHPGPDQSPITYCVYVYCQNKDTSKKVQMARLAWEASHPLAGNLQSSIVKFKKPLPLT
Description: Microscale thermophoresis (MST) binding assay. Set-up: species or system Kaposi's sarcoma-associated herpesvirus (KSHV). The note with it: read-out: KD value (MST); LANA aa 1008–1146 mutant; means of at least three replicates. The text has this: (§1) In these assays, an oligomerization-deficient mutant of a LANA C-terminal protein fragment (aa 1008–1146) and an oligonucleotide representing LANA-binding site (LBS) 1 were used, which are convenient to use and handle for the described biophysical methods, while maintaining the essential DNA-binding interface.[25]
Equation y = A2 + (A1-A2)/(1 + (x/x0)^p)
1.3 Microscale Thermophoresis (MST) Assay
Microscale Thermophoresis Assay was done as mentioned in a previous publication. 2

Experiment [2] deals with LANA–DNA interaction (oligomerization-deficient LANA DBD aa 1008–1146 mutant / LBS1) (Human herpesvirus 8 (Kaposi's sarcoma-associated herpesvirus), UniProt Q76SB0). Put plainly: Electrophoretic mobility shift assay (EMSA), LANA DBD mutant with LBS1 oligonucleotide. The format is biochemical, Kaposi's sarcoma-associated herpesvirus (KSHV). The note with it: compound at 250 μM; LBS1 oligonucleotide; LANA aa 1008–1146 mutant. How it is done: as §1
Equation y = A2 + (A1-A2)/(1 + (x/x0)^p) […]
1.4 Electrophoretic Mobility Shift Assay (EMSA)
The EMSA was carried out with slight modific ations as described previously 2 based on the assay in Hellert et al. (2013). 3 His-tagged oligomerization-deficient LANA DBD (aa1008-1146) mutant protein or LANA DBD (aa934-1162) wild type protein (200 nM final) was incubated with a 5´-Dy682-labeled double stranded DNA probe (IBA Lifesciences) (20 nM final) for 30 minutes at RT in the dark. The reaction buffer consisted of 30 mM Tris HCl pH 7.5, 50 mM KCl, 10 mM MgCl2, 1 mM DTT, 1 mM EDTA, 10% glycerol, 0.25% Tween20, 0.5 mg/mL BSA and 0.05 mg/mL poly(dI-dC). […]
dark. 10 µL of the reaction was run on a pre -run native 5% acrylamide gel for 45 minutes at 100V with tris-borate-EDTA buffer. Images of the gels were acquired and analysed with the Odyssey (Licor) using the Image Studio software.
Fig S2: Gels of EMSA experiments at 250 μM for all compounds (A) and dose-dependent curves for compound 20 using LANA DBD mutant (B) and LANA wildtype (C) as well as LBS1. Values are means […]
Gleichung y = A2 + (A1-A2)/(1 + (x/x0)^p) […]

This is an account of results in PMC10424179, “Disrupting Kaposi’s Sarcoma-Associated Herpesvirus (KSHV) Latent Replication with a Small Molecule Inhibitor” (Journal of Medicinal Chemistry, 2023).

As for `Cc1cc(-c2ccc(O)cc2)ncc1-n1cc(-c2ccc(C(=O)O)cc2)nn1` [Compound 23], the Kd in experiment [1] worked out at 30.9 ± 3 µM. Still for that read-out and setting: as for `Cc1cc(-c2cccnc2)ncc1-n1cc(-c2ccc(C(=O)O)cc2)nn1` [Compound 4], the figure is 81.3 ± 10.5 µM.

Take `Cc1cc(-c2ccccc2)ncc1-n1cc(-c2ccc(C(=O)O)cc2)nn1` [Compound 13]: the Kd in experiment [1] amounted to 7.6 ± 2 µM. Besides, the “Inhibition (EMSA, LBS1) @250 μM” value in experiment [2] is listed as “n.i. (n.i. = no inhibition for inhibition <10%)”. As to `COc1ccc(COc2ccccc2-c2cc(C)c(-n3cc(-c4ccc(C(=O)O)cc4)nn3)cn2)cc1` [Compound 35], the Kd in experiment [1] was 46.1 ± 5.8 µM. `Cc1cc(-c2cccc(Cl)c2)ncc1-n1cc(-c2ccc(C(=O)O)cc2)nn1` [Compound 15]: the Kd in experiment [1] worked out at 22.1 ± 4.8 µM. For the same molecule, in experiment [2], the “Inhibition (EMSA, LBS1) @250 μM” value is on record as “n.i. (n.i. = no inhibition for inhibition <10%)”. As for `Cc1cc(-c2cccc(O)c2)ncc1-n1cc(-c2ccc(C(=O)O)cc2)nn1` [Compound 22], in experiment [1], the Kd stood at 26.4 ± 3.4 µM. On the same count and under the same terms, as for `Cc1cc(-c2cccc(Oc3ccccc3)c2)ncc1-n1cc(-c2ccc(C(=O)O)cc2)nn1` [Compound 28], the figure is 71.1 ± 9.3 µM; as for `CNC(=O)c1ccc(-c2cc(C)c(-n3cc(-c4ccc(C(=O)O)cc4)nn3)cn2)cc1` [Compound 25], 30.9 ± 3.1 µM. For `Cc1cc(-c2cncnc2)ncc1-n1cc(-c2ccc(C(=O)O)cc2)nn1` [Compound 6], in experiment [1], the equilibrium dissociation constant (Kd) turned out to be 13.3 ± 2.5 µM. In experiment [2], the “Inhibition (EMSA, LBS1) @250 μM” value is on record as 74%.

With `COc1ccc(COc2cccc(-c3cc(C)c(-n4cc(-c5ccc(C(=O)O)cc5)nn4)cn3)c2)cc1` [Compound 34], the Kd in experiment [1] is 5.3 ± 4 µM. Moreover, in experiment [2], the “Inhibition (EMSA, LBS1) @250 μM” value turned out to be 31%. On to `Cc1cc(-c2cccc(C(=O)O)c2)ncc1-n1cc(-c2ccc(C(=O)O)cc2)nn1` [Compound 26], for which the Kd in experiment [1] was 12.1 ± 3.7 µM. Besides, the “Inhibition (EMSA, LBS1) @250 μM” value in experiment [2] is reported as “n.i. (n.i. = no inhibition for inhibition <10%)”. For `COc1ccc(COc2ccc(-c3cc(C)c(-n4cc(-c5ccc(C(=O)O)cc5)nn4)cn3)cc2)cc1` [Compound 36], in experiment [1], the Kd stood at 26 ± 3.8 µM.

With `Cc1cc(-c2cncc(O)c2)ncc1-n1cc(-c2ccc(C(=O)O)cc2)nn1` [Compound 7], in experiment [1], the Kd amounted to 48.3 ± 11.8 µM.

In the case of `Cc1cc(-c2ccc(Cl)cc2)ncc1-n1cc(-c2ccc(C(=O)O)cc2)nn1` [Compound 16], in experiment [1], the Kd amounted to 37.7 ± 59.3 µM. The same measure, in the same setting: under `Cc1cc(-c2cccc(OCc3ccccc3)c2)ncc1-n1cc(-c2ccc(C(=O)O)cc2)nn1` [Compound 29] stands 84.8 ± 5.6 µM.

For `COc1cc(COc2cccc(-c3cc(C)c(-n4cc(-c5ccc(C(=O)O)cc5)nn4)cn3)c2)cc(OC)c1` [Compound 33], the Kd in experiment [1] is 96.7 ± 9 µM.

Consider `Cc1cc(-c2cnc3ccccc3c2)ncc1-n1cc(-c2ccc(C(=O)O)cc2)nn1` [Compound 12], for which, in experiment [1], the Kd came to 31 ± 2.5 µM. On to `CNC(=O)c1cccc(-c2cc(C)c(-n3cc(-c4ccc(C(=O)O)cc4)nn3)cn2)c1` [Compound 24], for which, in experiment [1], the Kd was found to be 4.3 ± 0.9 µM. Also, in experiment [2], the “Inhibition (EMSA, LBS1) @250 μM” value amounted to 40%. As to `Cc1cc(-c2ccc(O)nc2)ncc1-n1cc(-c2ccc(C(=O)O)cc2)nn1` [Compound 8], the Kd in experiment [1] was found to be 13.8 ± 2.7 µM. Further, the “Inhibition (EMSA, LBS1) @250 μM” value in experiment [2] is recorded as 42%. Regarding `Cc1cc(-c2ccncc2)ncc1-n1cc(-c2ccc(C(=O)O)cc2)nn1` [Compound 5], the Kd in experiment [1] was 57.5 ± 6.8 µM. The same measure, in the same setting: under `COc1cccc(COc2cccc(-c3cc(C)c(-n4cc(-c5ccc(C(=O)O)cc5)nn4)cn3)c2)c1` [Compound 32] stands 31.3 ± 3 µM. In the case of `COc1ccccc1-c1cc(C)c(-n2cc(-c3ccc(C(=O)O)cc3)nn2)cn1` [Compound 17], in experiment [1], the Kd was determined as 18 ± 2.7 µM. For the same molecule, the “Inhibition (EMSA, LBS1) @250 μM” value in experiment [2] is recorded as 38%.

Consider `COc1ccccc1COc1cccc(-c2cc(C)c(-n3cc(-c4ccc(C(=O)O)cc4)nn3)cn2)c1` [Compound 31], for which, in experiment [1], the Kd worked out at 30.8 ± 15.9 µM. `COc1ccc(-c2cc(C)c(-n3cc(-c4ccc(C(=O)O)cc4)nn3)cn2)cn1` [Compound 10]: the Kd in experiment [1] was 9.2 ± 2.1 µM. Further, in experiment [2], the “Inhibition (EMSA, LBS1) @250 μM” value was “n.i. (n.i. = no inhibition for inhibition <10%)”. In the same order, the values of `COc1cccc(-c2cc(C)c(-n3cc(-c4ccc(C(=O)O)cc4)nn3)cn2)c1` [Compound 18] are 9.6 ± 2.8 µM and “n.i. (n.i. = no inhibition for inhibition <10%)”.

Consider `Cc1cc(-c2cccc(OCc3ccccc3Cl)c2)ncc1-n1cc(-c2ccc(C(=O)O)cc2)nn1` [Compound 30], for which the Kd in experiment [1] amounted to 159 ± 74 µM.
